Measured values reported in patent publication US11116731B2, “Hydrogen sulfide and/or nitrite in the treatment and prevention of atrial fibrillation” (Board of Supervisors of Louisiana State University and …, priority 2017, dated 2021).

Test system: CSE knockout mice
Assay: Inducible persistent AF (AF lasting more than 90 seconds after induction) in CSE knockout mice
Type: in vivo
Conditions: for risk of inducible persistent AF: 200 ug/kg retro-orbitally (i.e. I.V.) for three days
Source text: Homocysteine induced reactive oxygen species reduces the ability of eNOS to properly function in generating nitric oxide (NO).
FIGS. 11 to 12B show mouse Mouse Electrophysiology and AF induction in mice and persistent AF and short run or non-persistent AF.

Compound | persistent AF (FIGS. 26A, 26B, 34A to 35B) (female CSE KO mice) | AF (electro cardio rhythms, FIGS. 25A and 25B) (female CSE KO mice, nitrite treated vs PBS) | incidence of inducible persistent AF (female CSE knockout mice, 165 ug/kg intraperitoneal for 3 days) | risk of inducible persistent AF (CSE knock out male mice) | risk of inducible persistent AF (female CSE knock out mice)
O=NO [sodium nitrite] | dramatically reduces | reduced | decrease |  | 
[N]=O [NO, nitric oxide] | Reduced |  |  |  | 
C=CCSSSCC=C [DATS, diallyl trisulfide] |  |  |  | reduced to near wild type levels | no noticeable risk reduction
